# In patent US5169944A, “Methods and compositions for the enteral administration of hepatobiliary MRI contrast agents” (Board of Regents of the University of Washington, priority 1991, dated 1992):
# “Also recorded” adds a separate entry of the source.
# Legend:
# liver = conditions: cited from earlier work; for contrast enhancement: subsequent limited imaging experiments
# liver abscess = assay: MRI enhancement in liver abscess rats: liver abscess; type: in vivo, Sprague-Dawley rats
# [1] = rat, in vivo
# subcutaneous abscesses = assay: MRI enhancement in liver abscess rats: subcutaneous abscesses; type: in vivo, Sprague-Dawley rats; conditions: for enhancement of subcutaneous abscesses (in words): i.v.
# [2] = test system: liver metastases (mammary adenocarcinoma R3230 AC); assay: MRI enhancement in rats with liver metastases: tumor; type: in vivo, Fischer 344 female rats; conditions: for visualization of tumor deposits: i.v.
# Experimental: The entire procedure was performed under sterile conditions. Four animals died within 48 hours following surgery.
# [3] = test system: normal subcutaneous tissue; assay: MRI enhancement in liver abscess rats: normal subcutaneous tissue; type: in vivo, Sprague-Dawley rats; conditions: for enhancement of normal subcutis (in words): i.v.
# [4] = Deaths following the imaging experiment; type: in vivo, Sprague-Dawley rats; conditions: 5 rats per agent, i.v.; unclear whether due to contrast media or anesthesia
# Experimental: Pyrogenic liver abscesses were induced in Sprague-Dawley rats following the method of Weinsten, WM, 1975. Twelve female sprague-Dawley rats (250-300 g each) underwent midline laparotomy following intraperitoneal anesthesia with sodium pentobarbital (40-50 mg/kg), and a filtered bacterial inoculum of colonic contents was directly injected into the liver of each rat. Two animals died within 24 hours following surgery and were excluded from the study. The remaining 10 rats underwent MR imaging 4-6 days after surgery, as described below.
# These studies were done at an estimated 1/10 of the LD50 of protoporphyrin (Jackson et al, 1985).
# normal liver parenchyma [5] = assay: MRI enhancement in normal and liver abscess rats: normal liver parenchyma; type: in vivo, Sprague-Dawley rats
# [6] = early work; cited from earlier work
# normal liver parenchyma [7] = test system: normal liver parenchyma
# Experimental: Imaging experiments were performed with a General Electric CSI-II 2.0 T (85.6 Mhz proton resonant frequency) chemical shift imaging spectrometer (GE Medical Systems, Fremont, Calif.). The proton imaging sequence used was that of a standard pin echo 2DFT sequence that employed a single 3 mm slice thickness with four phase cycled signal acquisitions. […] Coronal images were obtained of the rats+ abdomen and thorax using a TR of 160 msec and a TE of 16 msec. A specially designed 53 mm outer diameter (130 mm long) imaging coil of the low-pass birdcage resonantor design was employed with a balanced-matched tuning network for all images. […]
# Signal intensity was measured by region-of-interest (ROI) analysis both for normal liver parenchyma, liver lesions and a corn oil standard. […] Signal intensity was measured over the center of the hepatic abscesses. Signal intensities were also determined for normal subcutaneous tissue in the area of the thoracic wall and for subcutaneous abscesses located in the anterior abdominal wall in rats with liver abscesses. Measured signal intensities (SI) were normalized to the intensity of the corn oil standard for all pre- and postcontrast images. Signal intensity enhancement was calculated according to the formula: (SI postcontrast-SI precontrast)/SI precontrast. […]
# gall bladder = conditions: i.v. 0.04 mmol/kg, 30 minutes
# Vx-2 tumor = assay: MRI signal enhancement, Vx-2 carcinoma model: tumor; type: in vivo, New Zealand White (NZW) rabbits; conditions: i.v. 0.04 mmol/kg, 30 minutes
# [8] = in vitro
# [9] = solubility and stability in hydrophilic and lipophilic solvents
# normal liver tissue [10] = conditions: gastric lavage, 0.05 mmol/kg Mn mesoporphyrin + […] mixed micelles, 4 hours
# normal liver tissue [11] = conditions: i.v. 0.04 mmol/kg, 30 minutes
compound,measurement,setting,value
"CNC[C@H](O)[C@@H](O)[C@H](O)[C@H](O)CO.CNC[C@H](O)[C@@H](O)[C@H](O)[C@H](O)CO.O=C([O-])CN(CCN(CC(=O)[O-])CC(=O)O)CCN(CC(=O)[O-])CC(=O)O.[Gd+3] [Gd-DTPA, gadopentetate dimeglumine]",contrast enhancement of normal liver and focal liver lesions,liver; intravenous,"nonselectively enhances either normal liver, focal liver lesions or both"
"O=S(=O)([O-])c1ccc(-c2c3nc(c(-c4ccc(S(=O)(=O)[O-])cc4)c4ccc([nH]4)c(-c4ccc(S(=O)(=O)[O-])cc4)c4nc(c(-c5ccc(S(=O)(=O)[O-])cc5)c5ccc2[nH]5)C=C4)C=C3)cc1.[Mn+4] [Mn TPPS4, manganese tetrakis-(4-sulfonatophenyl)porphyrin, reference compound]",contrast between normal and diseased tissue,liver abscess; i.v.,"enhanced both normal liver and abscesses, thus providing no improved contrast between normal and diseased tissue"
same,enhancement of liver abscess,"liver abscess; i.v. Mn TPPS4, 10 minutes post injection, p less than 0.05",63%
same,skin discoloration,[1],green discoloration of the skin
same,enhancement of subcutaneous abscesses (in words),subcutaneous abscesses,enhanced both subcutis and subcutaneous abscesses
same,enhancement of subcutaneous abscesses,"subcutaneous abscesses; i.v. Mn TPPS4, 60 minutes, p greater than 0.05",88%
same,visualization of tumor deposits,[2],failed to help in distinguishing the site of the tumor deposits
same,enhancement of liver and tumor / lesion discrimination,[2]; i.v. Mn-TPPS4,enhanced both liver and tumor thus providing no discrimination of the lesion
same,enhancement of normal subcutis (in words),[3],enhanced both subcutis and subcutaneous abscesses
same,enhancement of normal subcutaneous tissue,"[3]; i.v. Mn TPPS4, 60 minutes, p less than 0.05",56%
same,death following the imaging experiment,[4],One rat
same,enhancement of normal liver parenchyma,"normal liver parenchyma [5]; i.v. Mn TPPS4, 10 minutes post injection, p greater than 0.05",43%
C=CC1=C(C)c2cc3[nH]c(cc4nc(cc5[nH]c(cc1n2)c(C)c5CCC(=O)O)C(CCC(=O)O)=C4C)c(C)c3C=C [protoporphyrin],T1 effects in the liver,liver; early work,tissue specific T1(inversion time) effects were clearly demonstrated in the liver
same,solubility,[6],poor solubility
same,toxicity,[6],apparent high toxicity
C=CC1=C(C)c2cc3[n-]c(cc4[n-]c(cc5nc(cc1n2)C(C)=C5C=C)c(C)c4CCC(=O)[O-])c(CCC(=O)[O-])c3C.[H+].[H+].[Mn+2] [manganese protoporphyrin],contrast enhancement,liver,caused hepatic and biliary contrast enhancement
manganese uroporphyrin,contrast enhancement,liver,produced dramatic contrast effects in the kidneys and urine
manganese (III) mesoporphyrin [Mn mesoporphyrin],enhancement of liver abscesses (in words),"liver abscess; i.v., any time",not enhanced at any time
same,increase of signal intensity of normal liver parenchyma over baseline,"normal liver parenchyma [7]; 24 and 48 hrs, n=3 rats, may be artificially high",30%
same,maximum enhancement of normal liver parenchyma,"normal liver parenchyma [7]; i.v. 0.035 mmol/kg, over 60 min",70%
same,contrast enhancement of normal hepatic tissue,"liver; T1 weighted MRI, non-toxic doses",contrast enhancement of normal hepatic tissue leading to improved diagnostic visualization of tumors and abscesses
same,enhancement of subcutaneous abscesses (in words),subcutaneous abscesses,did not yield enhancement; also recorded: did not enhance either subcutis or subcutaneous abscesses
same,enhancement of the gall bladder (MRI signal intensity),gall bladder,373+/-92.3%
same,delayed tumor enhancement,"[2]; 24 and 48 hrs, n=3 rats",no delayed tumor enhancement was observed
same,visualization of tumor deposits,[2],made visualization of tumor deposits extremely simple
same,effect on signal intensity of metastases,"[2]; i.v. 0.035 mmol/kg, center and periphery of tumors, over 60 min, n=6 rats",did not significantly affect the signal intensity of metastases
same,enhancement of the tumor tissue (MRI signal intensity),Vx-2 tumor,12.7+/-12.1%
same,statistical significance of tumor enhancement,Vx-2 tumor,not statistically significant
same,enhancement of normal subcutis (in words),[3],did not yield enhancement; also recorded: did not enhance either subcutis or subcutaneous abscesses
same,tumor-to-liver contrast,"liver metastases; gastric, 0.05 mmol/kg + […] mixed micelles, single observation vs control animal",significant increase of the tumor-to-liver contrast
same,"enhancement properties, oral vs intravenous","liver metastases; tumor-to-liver contrast, oral administration",substantially equivalent to the properties established for intravenous administration
same,binding by cholestyramine,[8],cholestyramine binds Mn mesoporphyrin
same,death following the imaging experiment,[4],one
same,solubility in K2PO4 / water-based buffer,[9],improved solubility in high pH solutions
same,enhancement of normal liver tissue over baseline,normal liver tissue [10],65%
same,liver enhancement,"normal liver parenchyma [5]; i.v. 0.035-0.045 mmol/kg, 10 minutes, p less than 0.01",43%
same,prolonged enhancement of normal liver parenchyma,"normal liver parenchyma [5]; i.v., over the observation period of 60 min, significant",30-50%
same,enhancement of the liver (MRI signal intensity),normal liver tissue [11],89.6+/-17.5%
O=C([O-])CN(CCN(CC(=O)[O-])CC(=O)[O-])CCN(CC(=O)[O-])C(COCc1ccccc1)C(=O)[O-].[Gd+3] (stereo not drawn) [Gd-BOPTA],hepatic excretion and bile duct opacification,liver; in vivo,undergoes hepatic excretion and opacifies the bile ducts
